# Assay results as given in paper PMC6297231 (Nature Communications, 2018).
# Like-named read-outs stand apart in the source and are kept apart here.
# Assays:
# [1] = system: HCC1954; test: Cell viability assay; format: cell-based; details: Homo sapiens, 24 h; HCC1954 (Breast); read-out: AZD5991 24h GI50
# Experimental: (§2) Cells were plated at 3000 cells/well in 384-well white plates in corresponding cell growth media. […] Caspase-3/7 activation was subsequently determined using a Caspase-Glo 3/7 Reagent (Promega) and viability was assayed using the CellTiter-Glo Reagent (Promega) as described in manufacturer’s instructions. Dose–response curves for caspase-3/7 activation and viability were plotted and analyzed (including EC50 and GI50 determination) using GraphPad Prism.
# [2] = system: Eμ-Myc lymphoma cells stably expressing human Bcl-w; test: Apoptosis induction in Eμ-Myc lymphoma cells; details: overexpression of Bcl-w, 24 h
# Source text: The retroviral plasmids to express human Bcl-2 family members in murine Eμ-Myc lymphoma cells are MSCV-hMCL-1-GFP, MSCV-hBCL-2-GFP, MSCV-hBCL-XL-GFP, MSCV-hBFL-1/A1-GFP, and MSCV-hBCL-w-GFP. To produce viruses, constructs of interest were co-transfected into HEK293T cells with the plasmid encoding the packaging viruses (p-CL-AMPHO provided by Phillip Darcy from Peter MacCallum Cancer Center, Melbourne, Australia) using standard calcium phosphate transient transfection technique. The retroviruses were harvested, filtered and used to infect target cells following standard procedures.
# Samples were then centrifuged, washed twice with PBS and analyzed by flow cytometry in a BD LSRFortessa. FACSDiva software was used for data collection and FlowJo software for data analysis.
# [3] = system: H1568; test: Cell viability assay; format: cell-based; details: NCI-H1568, 24 h; H1568 (Lung); read-out: AZD5991 24h GI50
# Experimental: as §2
# [4] = system: JEKO1; test: Cell viability assay; format: cell-based; details: Homo sapiens, JeKo-1, 24 h; JEKO1 (NHL); read-out: AZD5991 24h GI50
# Experimental: as §2
# [5] = system: Sudhl8; test: Cell viability assay; format: cell-based; details: Homo sapiens, SU-DHL-8, 24 h; Sudhl8 (NHL); read-out: AZD5991 24h GI50
# Experimental: as §2
# [6] = system: MV4-11 tumors; test: MV4-11 subcutaneous mouse xenograft efficacy; format: in vivo, mice; details: for tumor regression (TR): transient
# Experimental: (§1) Female C.B.-17 SCID mice and female nude rats were purchased from Charles River Laboratories. […]. All xenograft studies were conducted at our Association for the Assessment and Accreditation of Laboratory Animal Care accredited facility in Waltham, MA in accordance with ethical regulations described in the guidelines established by the internal Institutional Animal Care and Use Committee. […]. In mice, drugs were dosed intravenously in a volume of 5 mL kg^-1 except for venetoclax that was dosed orally in a volume of 10 mL kg^-1. […]. Ten million MV4-11 cells were injected subcutaneously in the right flank of rats in a volume of 0.1 mL. Tumor volumes (measured by caliper), animal body weight, and tumor condition were recorded twice weekly for the duration of the study. The tumor volume was calculated using the formula: length (mm) × width (mm)^2[…]. For efficacy studies, growth inhibition from the start of treatment was assessed by comparison of the differences in tumor volume between control and treated groups. Statistical significance was evaluated using non-parametric, unpaired, two-tailed t-test. For efficacy studies, animals were randomized based on tumor volumes using stratified sampling, and enrolled into control and treatment groups. Dosing began when mean tumor size reached ~230 mm^3 in mice and 900 mm^3 in rats. Mice were euthanized once tumor size reached 2000 mm^3. Mice were excluded from the study upon body weight loss > 10% of the body weight at the initiation of the study. For pharmacokinetic analysis, plasma samples were precipitated and diluted with acetonitrile containing internal standard and analyzed by LC–MS/MS versus a calibration curve of known concentrations.
# [7] = system: Colo205; test: Cell viability assay; format: cell-based; details: Homo sapiens, COLO 205, 24 h; Colo205 (GI); read-out: AZD5991 24h GI50
# Experimental: as §2
# [8] = system: Nomo1; test: Caspase-3/7 activation assay; format: cell-based; details: Homo sapiens, NOMO-1, 6 h
# Experimental: as §2
# [9] = system: MUTZ3; test: Cell viability assay; format: cell-based; details: 24 h; MUTZ3 (AML); read-out: AZD5991 24h GI50
# Experimental: as §2
# [10] = system: OCILY10; test: Cell viability assay; format: cell-based; details: Homo sapiens, OCI-Ly10, 24 h; OCILY10 (NHL); read-out: AZD5991 24h GI50
# Experimental: as §2
# [11] = system: Pfeiffer; test: Cell viability assay; format: cell-based; details: Homo sapiens, 24 h; Pfeiffer (NHL); read-out: AZD5991 24h GI50
# Experimental: as §2
# [12] = system: MONOMAC6; test: Cell viability assay; format: cell-based; details: Homo sapiens, MONO-MAC-6, 24 h; MONOMAC6 (AML); read-out: AZD5991 24h GI50
# Experimental: as §2
# [13] = system: KMS26; test: Cell viability assay; format: cell-based; details: KMS-26, 24 h; KMS26 (MM); read-out: AZD5991 24h GI50
# Experimental: as §2
# [14] = system: ZR751; test: Cell viability assay; format: cell-based; details: Homo sapiens, ZR-75-1, 24 h; ZR751 (Breast); read-out: AZD5991 24h GI50
# Experimental: as §2
# [15] = system: Sudhl10; test: Cell viability assay; format: cell-based; details: Homo sapiens, SU-DHL10, 24 h; Sudhl10 (NHL); read-out: AZD5991 24h GI50
# Experimental: as §2
# [16] = system: KG1; test: Caspase-3/7 activation assay; format: cell-based; details: Homo sapiens, KG-1, 6 h
# Experimental: as §2
# [17] = system: REC1; test: Cell viability assay; format: cell-based; details: Homo sapiens, 24 h; REC1 (NHL); read-out: AZD5991 24h GI50
# Experimental: as §2
# [18] = system: FaDu; test: Cell viability assay; format: cell-based; details: Homo sapiens, 24 h; FaDu (Others); read-out: AZD5991 24h GI50
# Experimental: as §2
# [19] = system: MOLP-8 tumors; test: MOLP-8 subcutaneous xenograft efficacy; format: in vivo
# Experimental: as §1
# [20] = system: OCIAML3; test: Caspase-3/7 activation assay; format: cell-based; details: Homo sapiens, OCI-AML-3, 6 h
# Experimental: as §2
# [21] = system: OVCAR3; test: Cell viability assay; format: cell-based; details: Homo sapiens, OVCAR-3, 24 h; OVCAR3 (Others); read-out: AZD5991 24h GI50
# Experimental: as §2
# [22] = system: TMD8; test: Cell viability assay; format: cell-based; details: Homo sapiens, 24 h; TMD8 (NHL); read-out: AZD5991 24h GI50
# Experimental: as §2
# [23] = system: EOL1; test: Cell viability assay; format: cell-based; details: Homo sapiens, 24 h; EOL1 (AML); read-out: AZD5991 24h GI50
# Experimental: as §2
# [24] = system: MCF7; test: Cell viability assay; format: cell-based; details: Homo sapiens, 24 h; MCF7 (Breast); read-out: AZD5991 24h GI50
# Experimental: as §2
# [25] = single i.v. dose 60 mg kg^−1, ten days after treatment
smiles,measurement,setting,value
"Cc1c2c(nn1C)CSCc1cc(n(C)n1)CSc1cc(c3ccccc3c1)OCCCc1c(C(=O)O)n(C)c3c-2c(Cl)ccc13 (atropisomer, axis not shown; (Ra)) [(Ra)-7]",GI50,[1],756 nM
same,apoptosis-inducing activity,[2],blocked
same,GI50,[3],272 nM
same,GI50,[4],452 nM
same,GI50,[5],198 nM
same,tumor regression (TR),"[6]; single i.v. dose 10 mg kg^−1, 7 days after treatment",66%
same,tumor regression (TR),"[6]; single i.v. dose 30 mg kg^−1, 7 days after treatment",93%
same,mice with complete TR,[6]; single i.v. dose 100 mg kg^−1,six out of six
same,GI50,[7],20500 nM
same,EC50,"[8]; read-out: 6h caspase EC50, NOMO1, single agent",32.5 nM
same,EC50,"[8]; read-out: AZD5991 6h EC50, Nomo1 (AML), caspase 3/7 activation",47 nM
same,GI50,[9],4 nM
same,GI50,[10],119 nM
same,GI50,[11],3370 nM
same,GI50,[12],226 nM
same,GI50,[13],141 nM
same,GI50,[14],21200 nM
same,GI50,[15],10 nM
same,EC50,"[16]; read-out: 6h caspase EC50, KG1, single agent",> 333 nM
same,EC50,"[16]; read-out: AZD5991 6h EC50, KG1 (AML), caspase 3/7 activation",509 nM
same,GI50,[17],728 nM
same,GI50,[18],8870 nM
same,"tolerability, body weight","[19]; all dose levels, 10–100 mg kg^−1 single i.v. dose",no significant body weight loss
same,mice with tumor regression after second dose,"[19]; single dose 36 days after the first dose, 100 mg kg^−1 i.v., regrown tumors",4 out of 4
same,tumor growth inhibition (TGI),"[19]; single i.v. dose 10 mg kg^−1, ten days after treatment",52%
same,tumor growth inhibition (TGI),"[19]; single i.v. dose 30 mg kg^−1, ten days after treatment",93%
same,mice with no detectable tumors,[19]; [25],6 out of 7
same,tumor regression (TR),[19]; [25],99%
same,mice with complete TR,"[19]; single i.v. dose 100 mg kg^−1, ten days after treatment",7 out of 7
same,EC50,"[20]; read-out: 6h caspase EC50, OCIAML3, single agent",> 333 nM
same,EC50,"[20]; read-out: AZD5991 6h EC50, OCIAML3 (AML), caspase 3/7 activation",782 nM
same,GI50,[21],> 30000 nM
same,GI50,[22],535 nM
same,GI50,[23],12 nM
same,GI50,[24],1350 nM
